Values after ≈ are worked out from the molar mass of the structure shown.
Tests used:
[1] = tested on: Trypanosoma brucei brucei GUTat 3.1 strain; test: In vitro inhibitory activity on trypanosoma protozoa proliferation (Alamar Blue); settings: for IC50: Trypanosoma brucei, 72 h, read-out: IC50 value Trypanosoma brucei brucei GUTat3.1 strain
[2] = tested on: human fetal lung-derived normal fibroblast MRC-5 cells; test: Cytotoxicity test (MTT assay); assay type: cell-based; settings: for IC50: Homo sapiens, MRC5, 168 h, seven days culture, MTT assay, read-out: IC50 value MRC-5 cell; for Selectivity index (MRC-5 cytotoxicity IC50 / anti-trypanosoma IC50): (IC50 values for cytotoxicity)/(IC50 values for anti-trypanosoma activity)
Procedure: J. Antibiotics, 54: 658 to 663, (2001)]. That is, the human fetal lung-derived normal fibroblast MRC-5 cells [can be provided by Dr. […], Belgium)] were maintained and subcultured in the MEM-medium containing 10% bovine fetal serum (FCS) and antibiotics and were used as the host cell model. […] The presence or absence of the proliferation of the MRC-5 cells was measured by colorimetric quantification by the MTT assay. […] Also, the selectivity index (SI) was calculated as (IC50 values for cytotoxicity)/(IC50 values for anti-trypanosoma activity).

[3] = tested on: the microorganisms listed in Table 7; test: Antibacterial activity, paper disc method, overall statement; assay type: cell-based; settings: summary in words
Procedure: The antibacterial activities of Mangromicins A, B and C of the present invention were measured by the following method. Filter paper discs (Advantec, a diameter of 6 mm) were impregnated with 10 μL of 1 mg/mL solutions of Mangromicins A, B and C in methanol, and air-dried for a certain period of time to remove the solvent. Subsequently, the discs were placed on agar plates each containing the test bacteria shown in Table 7, followed by culturing at 35° C. for 24 hours. The diameter of the growth inhibiting zones formed around the paper discs was measured.

[4] = tested on: Bacillus subtilis ATCC6633; test: Antibacterial activity, paper disc method; assay type: cell-based; settings: 6 mm disc, 10 μL of 1 mg/mL, 35° C., 24 hours, read-out: the diameter of inhibiton zones

Structure (SMILES) | IC50 [1] | IC50 [2] | anti-trypanosoma activity compared to suramin and eflornithine ([1]; T.b.b. GUTat 3.1 strain, relative to suramin and eflornithine) | antibacterial activities on the microorganisms listed in Table 7 [3] | Selectivity index (MRC-5 cytotoxicity IC50 / anti-trypanosoma IC50) [2] | zone of inhibition at 1000 µg/mL [4]
Cc1ccc(C(=O)Nc2ccc(S(=O)(=O)O)c3cc(S(=O)(=O)O)cc(S(=O)(=O)O)c23)cc1NC(=O)c1cccc(NC(=O)Nc2cccc(C(=O)Nc3cc(C(=O)Nc4ccc(S(=O)(=O)O)c5cc(S(=O)(=O)O)cc(S(=O)(=O)O)c45)ccc3C)c2)c1 [Suramin, suramin, reference compound] | 1.58 µg/mL (≈ 1.22 µM) | > 100 µg/mL |  |  |  | 
CCCC1C(O)=C2CCC3(C)CC(C)C(O3)C(O)C(O)C(C)C(=O)CC1OC2=O (centres unmarked) [Mangromicin A] | 2.44 µg/mL (≈ 5.94 µM) | 16 µg/mL (≈ 39 µM) | equivalent or slightly inferior | almost no antibacterial activities | 6.6 | 
NCCCC(N)(C(=O)O)C(F)F (centres unmarked) [Eflornithine, eflornithine, reference compound] | 2.27 µg/mL (≈ 12.5 µM) | > 100 µg/mL |  |  |  | 
CCCC1C(O)=C2CCC3(C)CC(C)C(O3)C(O)/C=C(\C)C(=O)CC1OC2=O (centres unmarked) [Mangromicin B] | 43.4 µg/mL (≈ 111 µM) | 92.6 µg/mL (≈ 236 µM) |  | almost no antibacterial activities | 2.1 | 7 mm
